According to patent US20110039770A1, “INHIBITORS OF PROTEIN KINASE C ISOFORMS AND USES THEREOF” (PHARMAGAP INC., priority 2005, published 2011):
Read-outs that look alike come from different tables or passages of the source. Where a SMILES comes first, the peptide text is derived from it. Bridges are numbered along the chain shown (N, C = ends). Roman numbers before positions name the chains, in order. [ ]: non-standard residue; d: D form. The star is where a group is joined. PNA(A) = NCCN(CC(=O)*)C(=O)Cn1cnc2c(N)ncnc21; Adenin9ylacetyl = Nc1ncnc2c1ncn2CC(=O)*; Gly(N-2-aminoethyl) = NCCNCC(=O)O

What was measured:
PKC delta [1] = biological target: T1, PKC delta (Homo sapiens, UniProt Q05655); test: PepTag Non-Radioactive PKC Assay, purified isoform; type: biochemical; settings: negative = activation
Protocol: (§1) The inhibitory effect of the PKI compounds 1 to 10 on purified commercially available isoforms representative of the 3 classes of PKC: cPKC (alpha, betaI/II) nPKC (delta and epsilon) aPKC (zeta) was assayed using the PepTag® Non-Radioactive PKC Assay (Promega, Madison, Wis.). The zeta isoform was tested with this assay although its affinity for the substrate provided in the kit was relatively low. The amount of enzyme in the reaction mixture for the PKC zeta assays was multiplied by 2. The assay was used following the manufacturer's recommendations. The principle of the assay is based on the difference in charge of phosphorylated (negatively charged) form versus the non-phoshorylated form of a fluorescent substrate. The two forms can be separated by gel electrophoresis and the negatively charged band excised and the fluorescence measured (exc. 440 nm and em. 590 nm) in 96 well plates on a Galaxy FluoStar plate reader. The PKI compounds were added to the assay mixture at 3 doses: 150, 300 and 600 μM and an extra 75 μM when the inhibition was too high. The assay is strictly biochemical and the doses of the compounds used, therefore, are generally not correlative with in vivo situations.

PKC beta 2 = biological target: T2, PKC beta 2 (Homo sapiens, UniProt P05771); test: PepTag Non-Radioactive PKC Assay, purified isoform; type: biochemical; settings: negative = activation
T2 construct: purchased
Protocol: as §1

PKC zeta = biological target: T3, PKC zeta (Homo sapiens, UniProt Q05513); test: PepTag Non-Radioactive PKC Assay, purified isoform; type: biochemical; parameters: purchased; settings: enzyme amount x2, negative = activation
T3 sequence (Q05513 1-592): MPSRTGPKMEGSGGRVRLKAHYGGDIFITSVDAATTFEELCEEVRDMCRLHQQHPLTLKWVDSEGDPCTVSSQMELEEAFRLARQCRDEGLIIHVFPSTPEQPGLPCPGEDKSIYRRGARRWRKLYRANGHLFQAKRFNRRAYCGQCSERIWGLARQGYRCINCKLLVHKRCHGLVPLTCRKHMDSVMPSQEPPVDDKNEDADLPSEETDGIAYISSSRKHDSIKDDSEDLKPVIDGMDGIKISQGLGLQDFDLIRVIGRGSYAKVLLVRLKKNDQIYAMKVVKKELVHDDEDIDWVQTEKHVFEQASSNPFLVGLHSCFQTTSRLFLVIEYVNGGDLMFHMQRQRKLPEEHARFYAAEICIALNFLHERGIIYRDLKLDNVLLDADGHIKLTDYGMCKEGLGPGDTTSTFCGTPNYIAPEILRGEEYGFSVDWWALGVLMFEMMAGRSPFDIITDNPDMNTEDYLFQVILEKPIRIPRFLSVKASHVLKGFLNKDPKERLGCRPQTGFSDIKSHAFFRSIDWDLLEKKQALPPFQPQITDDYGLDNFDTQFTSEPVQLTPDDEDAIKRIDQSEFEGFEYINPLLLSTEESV
Protocol: as §1

PKC alpha = PKC alpha (Homo sapiens, UniProt P17252); test: PepTag Non-Radioactive PKC Assay, purified isoform; type: biochemical; parameters: purchased; settings: negative = activation
Protocol: as §1

PKC epsilon = biological target: T4, PKC epsilon (Homo sapiens, UniProt Q02156); test: PepTag Non-Radioactive PKC Assay, purified isoform; type: biochemical; parameters: purchased; settings: negative = activation
T4 sequence (Q02156 1-737): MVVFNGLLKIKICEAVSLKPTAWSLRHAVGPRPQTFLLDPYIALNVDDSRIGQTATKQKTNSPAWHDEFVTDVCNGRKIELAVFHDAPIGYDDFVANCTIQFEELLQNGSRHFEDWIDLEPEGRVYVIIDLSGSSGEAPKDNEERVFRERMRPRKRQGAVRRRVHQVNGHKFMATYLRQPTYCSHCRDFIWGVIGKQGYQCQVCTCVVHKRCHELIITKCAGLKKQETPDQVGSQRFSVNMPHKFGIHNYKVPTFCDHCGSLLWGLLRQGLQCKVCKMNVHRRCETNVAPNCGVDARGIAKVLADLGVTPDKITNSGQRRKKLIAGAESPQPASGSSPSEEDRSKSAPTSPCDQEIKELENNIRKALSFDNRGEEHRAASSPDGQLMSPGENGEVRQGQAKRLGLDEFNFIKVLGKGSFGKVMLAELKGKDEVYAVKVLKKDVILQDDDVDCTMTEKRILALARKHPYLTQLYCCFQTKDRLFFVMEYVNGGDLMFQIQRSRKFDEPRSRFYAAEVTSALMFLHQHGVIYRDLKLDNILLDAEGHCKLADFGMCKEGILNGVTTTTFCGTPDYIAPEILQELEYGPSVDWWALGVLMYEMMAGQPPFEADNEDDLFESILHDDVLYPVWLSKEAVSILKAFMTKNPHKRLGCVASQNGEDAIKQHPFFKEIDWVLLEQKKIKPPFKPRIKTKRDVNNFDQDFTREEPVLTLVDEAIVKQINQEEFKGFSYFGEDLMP
Protocol: as §1

PKC beta 1 = PKC beta 1 (Homo sapiens, UniProt P05771); test: PepTag Non-Radioactive PKC Assay, purified isoform; type: biochemical; parameters: purchased; settings: negative = activation
Protocol: as §1

[2] = test system: IMR-32 human neuroblastoma cells
Protocol: The ability of compounds PKI 1, PKI 2 and PKI 3 to inhibit cancer cell proliferation was tested in vitro using the human neuroblastoma cell line IMR-32. Monolayer cell cultures were trypsinized and the test compound was added at the doses indicated in Table 24 and internalized by pinocytic endocytosis using Influx TM pinocytic cell-loading reagent, a kit from Molecular Probes (Eugene, Oreg.) following the manufacturer's recommendations. The indicated doses refer to the concentration in the loading medium, which was used on 1×10^6 cells in a 10 μl volume, i.e. contained 10 μg to 100 ug of test compound that provides […] per cell. […] The cells were treated on day 0 of the experiment. The cells loaded with test compound were cultured in 96 well plates (5,000 cells in 100 μl per well), and the proliferation was monitored over 3 consecutive days. The increase in cell population was quantified using a Hoechst reagent-based assay (modified from Rao and Otto, 1992, Analytical Biochem. 207:186-192) that measures the total DNA of the population. Fluorescence was measured using a Millipore CytoFluor 2350 plate reader (excitation at 360 nm and emission at 460 nm). The measurements were obtained as relative fluorescence intensity, a value that is directly correlated to the total number of cells. Data are expressed as a percentage of matching controls that were supplemented with culture medium alone.
The ability of the compound TIM 9 to inhibit cancer cell proliferation was tested in vitro using the human neuroblastoma cell line IMR-32 and following the general protocol described in Example 14.
The ability of the compound TIM 11 to inhibit IMR-32 cancer cell proliferation was tested in vitro following the general protocol described in Example 14.
The ability of the compound TIM 10 to inhibit cancer cell proliferation was tested in vitro using the human neuroblastoma IMR-32 cell line and following the general protocol described in Example 14.

PKC delta [3] = biological target: T1, PKC delta; test: Kinase-Glo Luminescent Kinase Assay; type: biochemical
Protocol: Compounds TIM 10, 11, 13, 14, 15, and 18-22 (see Table 28) were tested for their ability to inhibit the activity of PKC-alpha, beta 1, delta and epsilon isoforms the Kinase-Glo™ Luminescent Kinase Assay (Promega, Cat # V6712/3/4) following the manufacturer's instructions.

[4] = 1.0 mg/mL in loading medium, 24 h
[5] = 1.0 mg/mL in loading medium, 48 h
[6] = 1.0 mg/mL in loading medium, 72 h
[7] = 2.5 mg/mL in loading medium, 24 h
[8] = 2.5 mg/mL in loading medium, 48 h
[9] = 2.5 mg/mL in loading medium, 72 h
[10] = 5.0 mg/mL in loading medium, 24 h
[11] = 5.0 mg/mL in loading medium, 48 h
[12] = 5.0 mg/mL in loading medium, 72 h
[13] = 10.0 mg/mL in loading medium, 24 h
[14] = 10.0 mg/mL in loading medium, 48 h
[15] = 10.0 mg/mL in loading medium, 72 h

Sequence of PKC beta 1 (P05771 whole entry, canonical isoform): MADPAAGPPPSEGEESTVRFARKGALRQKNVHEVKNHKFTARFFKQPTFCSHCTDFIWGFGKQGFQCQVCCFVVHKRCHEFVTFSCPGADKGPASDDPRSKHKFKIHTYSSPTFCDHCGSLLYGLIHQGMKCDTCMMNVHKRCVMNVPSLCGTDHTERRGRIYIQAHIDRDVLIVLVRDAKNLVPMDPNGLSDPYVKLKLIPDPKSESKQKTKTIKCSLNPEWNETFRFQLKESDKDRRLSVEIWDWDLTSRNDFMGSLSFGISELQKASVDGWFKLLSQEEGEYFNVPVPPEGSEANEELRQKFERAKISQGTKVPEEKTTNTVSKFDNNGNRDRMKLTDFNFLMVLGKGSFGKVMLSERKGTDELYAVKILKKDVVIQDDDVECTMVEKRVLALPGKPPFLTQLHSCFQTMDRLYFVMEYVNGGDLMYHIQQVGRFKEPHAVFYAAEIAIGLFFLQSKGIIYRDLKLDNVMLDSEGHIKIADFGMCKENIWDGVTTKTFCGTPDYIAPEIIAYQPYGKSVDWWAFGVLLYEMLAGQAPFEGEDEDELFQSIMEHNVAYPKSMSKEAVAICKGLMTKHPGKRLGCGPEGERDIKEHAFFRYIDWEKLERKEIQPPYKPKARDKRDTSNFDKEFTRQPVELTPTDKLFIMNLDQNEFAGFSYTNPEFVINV
T2 sequence (P05771 1-673 isoform P05771-2): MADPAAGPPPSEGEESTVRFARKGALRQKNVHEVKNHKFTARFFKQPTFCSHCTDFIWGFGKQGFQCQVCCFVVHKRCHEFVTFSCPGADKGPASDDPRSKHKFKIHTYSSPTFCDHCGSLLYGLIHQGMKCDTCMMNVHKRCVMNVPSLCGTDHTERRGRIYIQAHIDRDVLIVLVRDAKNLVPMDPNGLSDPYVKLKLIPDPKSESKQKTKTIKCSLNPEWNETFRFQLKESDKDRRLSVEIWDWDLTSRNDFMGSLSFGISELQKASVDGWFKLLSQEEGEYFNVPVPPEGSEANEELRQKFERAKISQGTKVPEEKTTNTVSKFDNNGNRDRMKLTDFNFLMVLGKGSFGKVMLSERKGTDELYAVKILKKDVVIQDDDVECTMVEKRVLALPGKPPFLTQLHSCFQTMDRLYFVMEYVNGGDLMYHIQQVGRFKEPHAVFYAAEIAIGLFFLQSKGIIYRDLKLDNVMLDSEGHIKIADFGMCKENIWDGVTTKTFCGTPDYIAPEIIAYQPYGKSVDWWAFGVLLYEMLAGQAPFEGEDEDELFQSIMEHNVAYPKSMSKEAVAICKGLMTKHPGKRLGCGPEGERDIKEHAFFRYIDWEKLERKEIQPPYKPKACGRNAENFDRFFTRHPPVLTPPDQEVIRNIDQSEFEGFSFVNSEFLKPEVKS
T1 sequence (Q05655 whole entry, canonical isoform): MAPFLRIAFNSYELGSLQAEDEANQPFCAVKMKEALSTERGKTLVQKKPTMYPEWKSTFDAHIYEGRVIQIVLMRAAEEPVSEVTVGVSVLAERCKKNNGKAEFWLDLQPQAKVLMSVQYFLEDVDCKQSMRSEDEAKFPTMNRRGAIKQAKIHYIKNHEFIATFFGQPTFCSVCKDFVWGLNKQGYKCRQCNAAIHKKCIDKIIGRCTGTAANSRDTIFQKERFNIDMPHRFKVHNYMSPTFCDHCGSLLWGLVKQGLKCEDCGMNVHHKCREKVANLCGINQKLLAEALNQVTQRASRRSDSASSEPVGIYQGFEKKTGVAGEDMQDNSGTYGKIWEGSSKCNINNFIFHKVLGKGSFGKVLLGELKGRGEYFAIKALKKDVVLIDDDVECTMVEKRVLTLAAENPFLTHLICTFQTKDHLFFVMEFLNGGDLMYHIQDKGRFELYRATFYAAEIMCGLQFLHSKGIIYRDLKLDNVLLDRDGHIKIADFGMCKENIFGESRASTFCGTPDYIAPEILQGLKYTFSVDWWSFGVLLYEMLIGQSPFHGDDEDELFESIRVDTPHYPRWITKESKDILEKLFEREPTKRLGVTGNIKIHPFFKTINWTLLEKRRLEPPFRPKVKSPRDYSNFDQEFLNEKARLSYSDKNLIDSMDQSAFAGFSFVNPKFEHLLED

Row | Compound | inhibition at 150 µM (PKC delta [1]) | inhibition at 300 µM (PKC delta [1]) | inhibition at 600 µM (PKC delta [1]) | inhibition at 150 µM (PKC beta 2) | inhibition at 300 µM (PKC beta 2) | inhibition at 600 µM (PKC beta 2) | inhibition at 150 µM (PKC zeta) | inhibition at 300 µM (PKC zeta) | inhibition at 600 µM (PKC zeta) | inhibition at 150 µM (PKC alpha) | inhibition at 300 µM (PKC alpha) | inhibition at 600 µM (PKC alpha) | inhibition at 150 µM (PKC epsilon) | inhibition at 300 µM (PKC epsilon) | inhibition at 600 µM (PKC epsilon) | inhibition at 150 µM (PKC beta 1) | inhibition at 300 µM (PKC beta 1) | inhibition at 600 µM (PKC beta 1) | % Inhibition of IMR-32 proliferation [2, 4] | % Inhibition of IMR-32 proliferation [2, 5] | other results
1 | CC[C@H](C)[C@H](NC(=O)[C@H](CSSC[C@H](NC(=O)CNC(=O)CN(CCN)C(=O)Cn1cnc2c(N)ncnc21)C(=O)N[C@@H](CCCCN)C(=O)NCC(=O)N[C@@H](CCCCN)C(=O)N[C@@H](Cc1ccccc1)C(=O)N[C@@H](CCCCN)C(=O)N[C@@H](CCCNC(=N)N)C(N)=O)NC(=O)[C@H](Cc1c[nH]cn1)NC(C)=O)C(=O)NCC(=O)N[C@@H](CCCNC(=N)N)C(=O)N[C@@H](Cc1ccccc1)C(=O)N[C@@H](CCCCN)C(N)=O [PKI 1] (I: Adenin9ylacetyl-[Gly(N-2-aminoethyl)]GCKGKFKR-NH2 / II: Ac-HCIGRFK-NH2; disulfide I:3-II:2; C-terminus assumed) | 56% | 61% | 88% | 78% | 90% | 92% | 15% | 10% | 20% | 78% | 84% | 87% | 54% | 58% | 83% | 71% | 92% | 93% | – | – | –
2 | CC(=O)N[C@@H](CC(C)C)C(=O)N[C@@H](CCCNC(=N)N)C(=O)N[C@@H](CCCNC(=N)N)C(=O)N[C@@H](C)C(=O)N[C@@H](CCCCNC(=O)CN(CCN)C(=O)Cn1cnc2c(N)ncnc21)C(=O)N[C@@H](CC(C)C)C(=O)NCC(N)=O [PKI 2] (Ac-LRRAK(PNA(A))LG-NH2; C-terminus assumed) | 59% | 79% | 84% | -59% | 61% | 74% | 0% | 6% | 20% | -24% | 35% | 83% | 58% | 67% | 84% | 18% | 52% | 70% | 49% | 51% | % Inhibition of IMR-32 proliferation [2, 6]: 10%; % Inhibition of IMR-32 proliferation [2, 7]: 29%; % Inhibition of IMR-32 proliferation [2, 8]: 21%; % Inhibition of IMR-32 proliferation [2, 9]: 26%; % Inhibition of IMR-32 proliferation [2, 10]: 31%; % Inhibition of IMR-32 proliferation [2, 11]: 20%; % Inhibition of IMR-32 proliferation [2, 12]: 17%; % Inhibition of IMR-32 proliferation [2, 13]: 31%; % Inhibition of IMR-32 proliferation [2, 14]: 29%; % Inhibition of IMR-32 proliferation [2, 15]: 21%
3 | CC(=O)N[C@@H](Cc1ccccc1)C(=O)N[C@@H](CCCNC(=N)N)C(=O)N[C@@H](CCCNC(=N)N)C(=O)N[C@@H](CCCCNC(=O)CN(CCN)C(=O)Cn1cnc2c(N)ncnc21)C(=O)N[C@@H](Cc1ccccc1)C(=O)N[C@@H](CCCNC(=N)N)C(=O)N[C@@H](CC(C)C)C(N)=O [PKI 3] (Ac-FRRK(PNA(A))FRL-NH2; C-terminus assumed) | 32% | 41% | 70% | 31% | 83% | 81% | 37% | 40% | 56% | 47% | 51% | 82% | 38% | 53% | 68% | 37% | 76% | 80% | 70% | 72% | % Inhibition of IMR-32 proliferation [2, 6]: 72%; % Inhibition of IMR-32 proliferation [2, 7]: 26%; % Inhibition of IMR-32 proliferation [2, 8]: 29%; % Inhibition of IMR-32 proliferation [2, 9]: 14%; % Inhibition of IMR-32 proliferation [2, 10]: 29%; % Inhibition of IMR-32 proliferation [2, 11]: 31%; % Inhibition of IMR-32 proliferation [2, 12]: 22%; % Inhibition of IMR-32 proliferation [2, 13]: 26%; % Inhibition of IMR-32 proliferation [2, 14]: 30%; % Inhibition of IMR-32 proliferation [2, 15]: 22%
4 | Ac—FRRCFRL—(G)7—RRKKGGKDFVVKR—NH2 (Ac-FRRCFRLGGGGGGGRRKKGGKDFVVKR-NH2) [TIM 20, PRE 1 and PKI 4] | – | – | – | – | – | – | – | – | – | – | – | – | – | – | – | – | – | – | – | – | % Inhibition PKC-δ (PKC delta [3]; 5.0 μM): 46.0%; % Inhibition PKC-δ (PKC delta [3]; 30.0 μM): 45.4%; inhibition of PKC delta activity (in words) (PKC delta [3]; Kinase-Glo): good specificity for PKC delta
